# In article PMC6914780 (2019):
# Columns and labels:
# [1] = system: SAM-VI U8C (RNA, riboswitch) GGCAUUGCGCCUCGCAUUGCACUCCGCGGGGCGAUAAGUCCUGAAAAGGGAUGUC; experiment: ITC; details: K+ 50 mM, Mg2+ 10 mM; 40 mM HEPES pH 7.0, 20 °C; N.D.; 0.5-1 mM ligand in syringe
# [2] = system: SAM-VI A34G (RNA, riboswitch) GGCAUUGUGCCUCGCAUUGCACUCCGCGGGGCGGUAAGUCCUGAAAAGGGAUGUC; experiment: ITC; details: K+ 50 mM, Mg2+ 10 mM; 40 mM HEPES pH 7.0, 20 °C; N.D.; 0.5-1 mM ligand in syringe
# [3] = system: SAM-VI A36G/A37G/G38A (RNA, riboswitch) GGCAUUGUGCCUCGCAUUGCACUCCGCGGGGCGAUGGAUCCUGAAAAGGGAUGUC; experiment: ITC; details: K+ 50 mM, Mg2+ 10 mM; 40 mM HEPES pH 7.0, 20 °C; N.D.; 0.5-1 mM ligand in syringe
# [4] = system: SAM-VI U8G (RNA, riboswitch) GGCAUUGGGCCUCGCAUUGCACUCCGCGGGGCGAUAAGUCCUGAAAAGGGAUGUC; experiment: ITC; details: K+ 50 mM, Mg2+ 10 mM; 40 mM HEPES pH 7.0, 20 °C; N.D.; 0.5-1 mM ligand in syringe
# [5] = system: metK 65 (U39Ap) (RNA, riboswitch, 2-aminopurine at U39 (paper numbering)) GCAAACGAAAACGUAUCAUUGUGCCUCGCUGGGGAGCGGGGCGAUAAGUCCGAAAGAGGGAUGAU; experiment: 2-aminopurine fluorescence; details: K+ 100 mM, Mg2+ 2 mM; 50 mM KMOPS pH 7.5, 20 °C; 0.5 µM RNA, 15 µM SAM; >3-fold fluorescence increase
# [6] = system: SAM-VI A36C (RNA, riboswitch) GGCAUUGUGCCUCGCAUUGCACUCCGCGGGGCGAUCAGUCCUGAAAAGGGAUGUC; experiment: ITC; details: K+ 50 mM, Mg2+ 10 mM; 40 mM HEPES pH 7.0, 20 °C; N.D.; 0.5-1 mM ligand in syringe
# [7] = system: U6C U39Ap SAM-VI (RNA, riboswitch, 2-aminopurine at U39 (paper numbering)) GGCAUCGUGCCUCGAAAGGGGCGAUAAGUCCUGAAAAGGGAUGUC; experiment: 2-aminopurine fluorescence titration; details: K+ 100 mM, Mg2+ 2 mM; 50 mM KMOPS pH 7.5, 20 °C; apparent
# [8] = system: wt U39Ap SAM-VI (GAAA tetraloop) (RNA, riboswitch, 2-aminopurine at U39 (paper numbering)) GGCAUUGUGCCUCGAAAGGGGCGAUAAGUCCUGAAAAGGGAUGUC; experiment: 2-aminopurine fluorescence titration; details: K+ 100 mM, Mg2+ 2 mM; 50 mM KMOPS pH 7.5, 20 °C; apparent
# [9] = system: SAM-VI WT (B. angulatum 59 metK, U1A loop, crystallization/ITC construct) (RNA, riboswitch) GGCAUUGUGCCUCGCAUUGCACUCCGCGGGGCGAUAAGUCCUGAAAAGGGAUGUC; experiment: ITC; details: K+ 50 mM, Mg2+ 10 mM; 40 mM HEPES pH 7.0, 20 °C
# [10] = system: U6C U39Ap SAM-VI (RNA, riboswitch, 2-aminopurine at U39 (paper numbering)) GGCAUCGUGCCUCGAAAGGGGCGAUAAGUCCUGAAAAGGGAUGUC; experiment: stopped-flow 2-aminopurine fluorescence; details: K+ 100 mM, Mg2+ 2 mM; 50 mM KMOPS pH 7.5, 20 °C; association rate constant
# [11] = system: SAM-VI A34C (RNA, riboswitch) GGCAUUGUGCCUCGCAUUGCACUCCGCGGGGCGCUAAGUCCUGAAAAGGGAUGUC; experiment: ITC; details: K+ 50 mM, Mg2+ 10 mM; 40 mM HEPES pH 7.0, 20 °C; N.D.; 0.5-1 mM ligand in syringe
# [12] = system: SAM-VI U8A (RNA, riboswitch) GGCAUUGAGCCUCGCAUUGCACUCCGCGGGGCGAUAAGUCCUGAAAAGGGAUGUC; experiment: ITC; details: K+ 50 mM, Mg2+ 10 mM; 40 mM HEPES pH 7.0, 20 °C; N.D.; 0.5-1 mM ligand in syringe
# [13] = system: SAM-VI A37C (RNA, riboswitch) GGCAUUGUGCCUCGCAUUGCACUCCGCGGGGCGAUACGUCCUGAAAAGGGAUGUC; experiment: ITC; details: K+ 50 mM, Mg2+ 10 mM; 40 mM HEPES pH 7.0, 20 °C; N.D.; 0.5-1 mM ligand in syringe
# [14] = system: metK 61 (U39Ap) (RNA, riboswitch, 2-aminopurine at U39 (paper numbering)) GCAAACGAAAACGUAUCAUUGUGCCUCGCUGGGGAGCGGGGCGAUAAGUCCGAAAGAGGGA; experiment: 2-aminopurine fluorescence; details: K+ 100 mM, Mg2+ 2 mM; 50 mM KMOPS pH 7.5, 20 °C; 0.5 µM RNA, 15 µM SAM; no fluorescence change
# [15] = system: SAM-VI G33A (RNA, riboswitch) GGCAUUGUGCCUCGCAUUGCACUCCGCGGGGCAAUAAGUCCUGAAAAGGGAUGUC; experiment: ITC; details: K+ 50 mM, Mg2+ 10 mM; 40 mM HEPES pH 7.0, 20 °C; N.D.; 0.5-1 mM ligand in syringe
# [16] = system: wt U39Ap SAM-VI (GAAA tetraloop) (RNA, riboswitch, 2-aminopurine at U39 (paper numbering)) GGCAUUGUGCCUCGAAAGGGGCGAUAAGUCCUGAAAAGGGAUGUC; experiment: stopped-flow 2-aminopurine fluorescence; details: K+ 100 mM, Mg2+ 2 mM; 50 mM KMOPS pH 7.5, 20 °C; association rate constant
# [17] = system: SAM-VI G38C (RNA, riboswitch) GGCAUUGUGCCUCGCAUUGCACUCCGCGGGGCGAUAACUCCUGAAAAGGGAUGUC; experiment: ITC; details: K+ 50 mM, Mg2+ 10 mM; 40 mM HEPES pH 7.0, 20 °C; N.D.; 0.5-1 mM ligand in syringe
# [18] = system: SAM-VI G7C (RNA, riboswitch) GGCAUUCUGCCUCGCAUUGCACUCCGCGGGGCGAUAAGUCCUGAAAAGGGAUGUC; experiment: ITC; details: K+ 50 mM, Mg2+ 10 mM; 40 mM HEPES pH 7.0, 20 °C; N.D.; 0.5-1 mM ligand in syringe
# [19] = system: SAM-VI U6C (RNA, riboswitch) GGCAUCGUGCCUCGCAUUGCACUCCGCGGGGCGAUAAGUCCUGAAAAGGGAUGUC; experiment: ITC; details: K+ 50 mM, Mg2+ 10 mM; 40 mM HEPES pH 7.0, 20 °C
binding [1],binding [2],binding [3],binding [4],binding [5],binding [6],Kd [7] [nM],Kd [8] [nM],Kd [9] [nM],kon [10],binding [11],binding [12],binding [13],binding [14],binding [15],kon [16],binding [17],binding [18],Kd [19] [nM],Structure (SMILES)
no,no,no,no,yes,no,2310 ± 60,2040 ± 110,330 ± 60,"62,550 ± 1900 M^-1 s^-1",no,no,no,no,no,"24,580 ± 689 M^-1 s^-1",no,no,460 ± 20,C[S+](CC[C@H](N)C(=O)O)C[C@H]1O[C@@H](n2cnc3c(N)ncnc32)[C@H](O)[C@@H]1O (stereo partly drawn)
,,,,,,,,4400 ± 500,4230 ± 462 M⁻¹ s⁻¹,,,,,,"17,240 ± 1140 M^-1 s^-1",,,1700 ± 300,Nc1ncnc2c1ncn2[C@@H]1O[C@H](CN(CCO)CC[C@H](N)C(=O)O)[C@@H](O)[C@H]1O
,,,,,,,,10900 ± 1300,1460 ± 179 M⁻¹ s⁻¹,,,,,,5500 ± 266 M⁻¹ s⁻¹,,,2300 ± 100,Nc1ncnc2c1ncn2[C@@H]1O[C@H](CSCC[C@H](N)C(=O)O)[C@@H](O)[C@H]1O
